In EP1282414B1, “FELBAMATE DERIVED COMPOUNDS FOR TREATING NEUROPATHIC PAIN” (University of Virginia Patent Foundation, priority 2000, dated 2001):

Legend:
[1] = Stability of oxazinane-dione at relevant pH; format: physicochemical
From the text: It is anticipated, therefore, that the oxazinane-dione 9 is responsible for some aspects of felbamate's efficacy in vivo. As patients undergoing felbamate therapy for seizure control ingest large quantities of felbamate (grams per day), even a 1 - 2% conversion to a pharmacologically active metabolite could have significant effects. […] In light of the possibility that the oxazinane-dione 9 could be a metabolic precursor to the major human metabolite, acid carbamate 4, it may be formed in significant quantities (the acid carbamate was reported to represent ∼ 12% of a dose). […] Also included in this class are cyclic congeners 21 and 22, which may be formed from felbamate derivatives (see scheme II). Also included is 20, which may be an unknown metabolite of felbamate 1 and could be produced from felbamate derivative 12 by the cytochrome P450 metabolism.

[2] = LC/MS quantification of felbamate and metabolites in patient urine; format: in vivo, patients
Procedure: Preparation of Patient Urine Samples. Urine samples were obtained from patient volunteers undergoing felbamate therapy for control of epileptic seizures and under the care of physicians at either the University of Virginia (Charlottesville, Virginia) or the EpiCare Center (Memphis, Tennessee). Urine samples were diluted four fold with distilled water (this was done prior to overnight shipment for samples requiring shipping) and placed in an orbital shaking water bath for ∼ 20 min at 37 °C to insure that all of the analytes were in solution. 500 µL of this diluted sample were removed and added to 100 µL of a mixture of the four deuterated internal standards. […] After mixing, 200 µL were removed and added to 20 µL of 20% H0Ac. This acidified sample was then applied to a preconditioned Waters "Oasis" solid phase extraction cartridge (Waters Corp., Woburn, MA). The cartridge was washed with 2 mL 0.1% HOAc followed by 3 mL 10% CH3CN/90% water (0.1 %) H0Ac. The analytes and internal standards were then eluted with 3 mL 30% CH3CN:70% (0.1 %) HOAc. This fraction was then analyzed by LC/MS without further manipulation.
LC/MS Analysis of Urine Samples for Metabolite Quantification. LC/MS analysis was performed using a Waters 2690 HPLC equipped with an autosampler and a Waters 486 tunable absorbance detector. This LC system was interfaced to a Finnigan MAT LCQ ion trap mass spectrometer. A 10 µL injection of the fraction from solid phase extraction was applied to a Waters Symmetry C8 reversed phase column (33% CH3CN:67% (0.1%) H0Ac, 2.1 mm x 150 mm, 0.2 mL/min). The post-column flow was directed through a Waters 486 tunable absorbance detector (10 µL flow cell, λ = 214 nm) which was used for qualitative assessment of the sample and not for quantitation. The flow was then directed to the electrospray ionization source of the LCQ.
The mass spectrometer was programmed to collect data in full scan mode from 190 - 320 m/z and was tuned to maximize the signal from the analytes under the HPLC conditions. The values for the electrospray parameters were as follows: heated capillary temperature = 180°C; spray voltage = 5.6 kV; capillary voltage = 20 V; sheath gas (nitrogen) flow rate = 70; auxillary gas (helium) flow rate = 20. The automatic gain control (AGC) was on with a target ion count of 7 x 10^7 ions and a maximum ion inject time of 150 ms. […]
Quantification was achieved by integration of the peaks from the mass chromatogram for each analyte using software (Navigator 1.1) provided with the LCQ. The area (expressed as counts x seconds) of the peak for each metabolite was compared to the area for its corresponding deuterated internal standard. As the absolute amount of internal standard added per mL of urine was known, the absolute amount of analyte per mL of urine could be determined.

[3] = patients on felbamate monotherapy; cited from earlier work
[4] = test system: painful peripheral neuropathy; details: rat model of painful peripheral neuropathy; cited from earlier work
[5] = urine of patients on felbamate therapy, 34 samples

## O=C1NC(=O)C(c2ccccc2)CO1 (stereo not shown) [oxazinane-dione 9]
[1]
  stability at relevant pH (in words): unstable

## NC(=O)OCC(COC(N)=O)c1ccccc1 [felbamate, 2-phenyl-1,3-propanediol dicarbamate]
[2]; patient with total daily dose of 3.6 grams of felbamate (lowest of range)
  amount of felbamate excreted per mL of urine: 819 ± 8.5 nmol/mL
[2]; patient with total daily dose of 6.0 grams of felbamate (highest of range)
  amount of felbamate excreted per mL of urine: 10,064 ± 515 nMoles/mL
[3]
  Weight loss: 4-5%
[4]
  effect on measures of pain (in words): significant reductions in all measures of pain

## CC(=O)N[C@@H](CSCC(CO)c1ccccc1)C(=O)O (stereo partly shown) [Nac-alcohol]
[2]; [5]
  average ratio of Nac-alcohol to Nac-acid: 6.4
  ratio of Nac-alcohol to Nac-acid (range over patients): 2- 14
